Laboratory results: paper PMC7782499, “Progerinin, an optimized progerin-lamin A binding inhibitor, ameliorates premature senescence phenotypes of Hutchinson-Gilford progeria syndrome” (Communications Biology, 2021)
Several values for one entry are separate records, joined by “and”; a condition that tells them apart may be missing. Identical values can stand only once.

Experiments:
HGPS cells [1] = experiment: Nuclear deformation counting in HGPS cells; type: cell-based, human; design: key to Nuclear deformation (rate): fraction of nuclear-deformed cells, relative to DMSO-treated cells; details: for Nuclear deformation (rate): 7 days, normalized to DMSO-treated cells
Method: (§1) Fig. 1 SLC-D011 ameliorates premature aging features of HGPS. A. HEK293 cells were transiently transfected with expression vector encoding wild-type lamin A (WT-LA), lamin A-C661A (LA-C661A), progerin, or progerin-C611A. LA-C661A or progerin-C611A with point mutation in CaaX motif was predicted to be lack of farnesylation, […] that of authentic WT-LA or progerin. GFP-conjugated empty expression vector was used as a negative control. Cells were visualized at 24 h after transfection. B Transient transfection of HEK293 cells with expression vector encoding progerin or […] leads to reduced expression of H3K9me3 (n = 3 independent experiments; two-tailed Student’s t test). C. JH4 derivatives (JH010 and SLC-D011(D011)) inhibit lamin A and progerin interaction. For binding inhibition assay, bead-conjugated lamin A (GST-LA) was incubated with HEK293 cells, transiently transfected with GFP-progerin (PG), and treated with indicated chemicals. Actin was used as a loading control. PPT, co-precipitated materials with recombinant proteins; Sup supernatant. 5 μM of each chemical was used for binding assay. […] H3K9me3 reduction is a well-known marker for premature aged cells. Thus, H3K9me3 expression was evaluated by immunostaining. […] E SLC-D011 obviously suppresses progerin expression. For progerin expression analysis, each chemical was used to treat HGPS cells (AG03198, Coriell Cell Repositories) for 7 days. […] F SLC-D011 reduces the expression of progerin in other HGPS cells (AG11513 and AG11498, Coriell Cell Repositories). Treatment with SLC-D011 (2 μM) for 7 days reduced the expression of progerin and p16/INK4A but induced the expression of H3K9me3. […] G JH4, JH010, and SLC-D011 promote cell proliferation. Cell viability was determined by MTT assay after incubation with chemicals for 7 days (n = 3 independent experiments; two-tailed Student’s t test). H JH4, JH010, and SLC-D011 show similar activity for ameliorating nuclear deformation. After incubation with chemicals for 7 days, cells were stained with progerin and H3K9me3 antibodies (n = 3 independent experiment; two-tailed Student’s t test), **p < 0.001. Data are reported as mean ± SD. “Con” means Dimethyl sulfoxide (DMSO)-treated control. The data are normalized to DMSO-treated cells.
(§2) For nuclear deformation cell counting, immunofluorescence staining was performed with lamin A or progerin antibodies. After staining, abnormal nuclear membrane was counted in randomly selected fields and expressed as percentages or actual numbers of total cells counted. Abnormalities of nuclear membrane were determined based on the following: (1) lamin A/C or progerin lining was extruded or engulfed, (2) having at least one bleb, and (3) irregular contour. Counting of cells with nuclear deformation was performed by three independent observers who were blinded to chemical treatment group. To analyze histone H3K9me3 intensity or expression, images were quantified using “color histogram” function of Image J software (National Institute of Health, NIH). Fluorescence intensities were subtracted by background signals.

[2] = system: normal fibroblasts and HGPS cells; experiment: Long-term treatment cell viability (MTT assay) in normal fibroblasts and HGPS cells; type: cell-based
Method: (§3) To determine the cellular viability, cells were treated with lonafarnib or SLC-D011 for 2 weeks. For MTT assay, cells were incubated with 0.5 mg/ml of 3-(4,5-dimethythiazol-2-yl)-2,5-diphenyl tetrazolium bromide (MTT) solution for 6 hr at 37 °C. After removing MTT solution, the precipitated materials were dissolved in […] DMSO and quantified by measuring the absorbance at 540 nm.
Fig. S12. […] A. SLC-D011, compar ed to lonafarnib, reduces exogenous progerin expression in HEK293 cells. B. Long- t e r m treatment (treated with 2μM ever y ot her day for 2 weeks) with lonafarnib or SLC-D011 was performed for normal fibroblasts and HGPS cells. […]
to determine the cellular viability after treatment with lonafarnib or SLC-D011 (n = 3 independent experiment; two-tailed Student’s t -test), **p < 0.001, *p < 0.05, N.S: not significant. […]

HGPS cells [3] = experiment: Cell proliferation of HGPS cells (MTT assay, cell counting); type: cell-based, human; details: for Cell proliferation (rate): 7 days, normalized to DMSO-treated cells
Method: as §3
Fig. S4. Ef fect s of J H4, J H010, and SLC-D011 in ameliorating nuclear deformation of HGPS fibroblasts.
A. JH4, JH010, and SLC-D011 increase population of HGPS cells (n = 3 independent experiment; two-
tailed Student’s t -test), **p<0.001. […]
DAPI indicated DNA. C. Treatment with SLC-D011 (1 µM) for 7 days increased
cell proliferation in three different HGPS cells but not in normal fibroblasts (n = 3 independent experiments;
two-tailed Student’s t-test), **p < 0.001, N.S: not significant. AU, arbitrary units. […]

H3K9me3 = H3K9me3 expression in HGPS cells; type: cell-based, human; details: AG03198; for H3K9me3 positive cells after treatment with chemicals, Ave: average; for H3K9me3 positive cells after treatment with chemicals: single replicates
Method: as §1
Cells were cultured on coverslips, washed with PBS, fixed with 4% paraformaldehyde (PFA) for 30 min at RT, and then permeabilized with 0.2% Triton X-100 at RT for 5 min. After treatment with blocking solution (anti-Human antibody diluted 1:400 in PBS) for 1 h, cells were incubated with anti-lamin A/C (1:400), anti-progerin (1:100), Ki67 (1:200), and anti-H3K9me3 (1:200) in blocking buffer overnight at 4 °C. Finally, cells were incubated with fluorescein isothiocyanate and rhodamine-conjugated secondary antibodies at 4 °C for 7 h. Nuclei were stained with DAPI (4, 6-diamidino-2-phenylindole) at RT for 10 min. After cells were washed three times with PBS, coverslips were mounted with mounting solution (H-5501; Vector Laboratories, Burlingame, CA, USA). Immunofluorescence signal was detected with a fluorescence microscopy (Zeiss and Logos).
as §2

NC(=O)N1CCC(CC(=O)N2CCC([C@H]3c4ncc(Br)cc4CCc4cc(Cl)cc(Br)c43)CC2)CC1 [lonafarnib, reference compound]
Nuclear shape (HGPS cells [1]; HGPS cells): induced donut-shaped nuclei
Cell death on long-term treatment ([2]; 2μM every other day for 2 weeks): induced cell death in both normal fibroblasts and HGPS cells
Cell viability ([2]; AG03198, Ave): 0.5027 ratio
Cell viability ([2]; AG03198, individual replicate): 0.6483 ratio and 0.3112 ratio and 0.5484 ratio
Cell viability ([2]; AG11513, Ave): 0.692 ratio
Cell viability ([2]; AG11513, individual replicate): 0.6982 ratio and 0.6988 ratio and 0.6791 ratio
Cell viability ([2]; N9, Ave): 1.642 ratio
Cell viability ([2]; N9, individual replicate): 1.689 ratio and 1.546 ratio and 1.691 ratio

CC1(C)Oc2cc3oc(=O)ccc3cc2CC1OC(=O)C=Cc1cccnc1 (stereo not drawn) [JH4]
Cell proliferation (rate) (HGPS cells [3]; AG03198, 2uM): 1.267 and 1.276 and 1.118 and 1.25 and 1.333 and 1.2963
Cell proliferation (rate) (HGPS cells [3]; AG03198, 2uM, mean): 1.257
Cell proliferation (rate) (HGPS cells [3]; AG03198, 5uM): 1.833 and 1.759 and 1.647 and 1.964 and 1.667 and 1.926
Cell proliferation (rate) (HGPS cells [3]; AG03198, 5uM, mean): 1.799
Cell counting after treatment with chemicals, Ave (HGPS cells [3]; AG11513, average): 28
Cell counting after treatment with chemicals (HGPS cells [3]; AG11513, single replicates): 22 and 29 and 19 and 40 and 32 and 37 and 17 and 28
Nuclear deformation (rate) (HGPS cells [1]; AG03198, 2uM): 0.7742 and 0.8571 and 0.5758 and 0.6176 and 0.8 and 0.6765
Nuclear deformation (rate) (HGPS cells [1]; AG03198, 2uM, mean): 0.7169
Nuclear deformation (rate) (HGPS cells [1]; AG03198, 5uM): 0.5161 and 0.5357 and 0.5455 and 0.4706 and 0.5667 and 0.5294
Nuclear deformation (rate) (HGPS cells [1]; AG03198, 5uM, mean): 0.5273
H3K9me3 positive cells after treatment with chemicals, Ave (H3K9me3; 2μM): 14.5
H3K9me3 positive cells after treatment with chemicals (H3K9me3; 2μM): 13 and 17 and 15 (2×) and 11 and 16
H3K9me3 positive cells after treatment with chemicals, Ave (H3K9me3; 5μM): 21.6667
H3K9me3 positive cells after treatment with chemicals (H3K9me3; 5μM): 27 and 16 and 20 and 22 (2×) and 23
H3K9me3 positive cells after treatment with chemicals, Ave (H3K9me3; 10μM): 27
H3K9me3 positive cells after treatment with chemicals (H3K9me3; 10μM): 30 and 29 and 24 and 25 and 27 (2×)
